Consider two molecules from patent US9974760B2, “Compositions and methods for treating cancer” (Chemo-Enhanced LLC, priority 2011, dated 2018).

“Also recorded” adds a separate entry of the source.

In one experiment the test system is ERK. Description: Western Blot of ERK activation in L3.6 cells. It is filed as cell-based. How it is done:
(§1) Pancreatic cancer cell lines L3.6 cells were left untreated or treated with gemcitabine (Gem, 1 μg/ml) or taxol (1.5 μg/ml) in the presence or absence of C6-ceramide (10 μg/ml) for 2, 4 and 6 hours, AKT/mTORC1 and ERK activation were detected by Western Blot using indicated antibodies (FIGS. 5A and 5C). p-AKT (S473) and p-ERK at 4 hour time intervals for each treatment quantified (FIGS. 5B and 5D). L3.6 cells were pretreated with various inhibitors including PI3K/AKT inhibitor LY 294002 (LY, 1 μM), mTORC1 inhibitor rapamycin (100 nM), MEK/ERK inhibitor U0126 (1 μg/ml) or gemcitabine (1 μg/ml) for 48 hours, cell death was detected 48 hours later (FIG. 5E).
(§2) As described in Cao et al. (2009) Sci. Signal, 2:RA17, aliquots of 30-40 μg of protein from each sample (treated as indicated in the legends) were separated by 10% SDS-polyacrylamide gel electrophoresis (SDS-PAGE) and transferred onto a polyvinylidene difluoride (PVDF) membrane (Millipore, Bedford, Mass.). After blocking with 10% instant nonfat dry milk for 1 hour, membranes were incubated with specific antibodies overnight at 4° C. followed by incubation with secondary antibodies (HRP-conjugated anti-rabbit or anti-mouse IgG at the appropriate dilutions) for 60 minutes to 1 hour at room temperature. Antibody binding was detected with the enhanced chemiluminescence (ECL) detection system (Amersham Biosciences, Piscataway, N.J.).
A general note: A western blot detects proteins with antibodies after separation by electrophoresis.

A further experiment concerns AKT/mTORC1. The experiment can be described thus: Western Blot of AKT/mTORC1 activation in L3.6 cells. In kind it is cell-based. The note with it: for PI3K/AKT/mTOR activation: Taxol alone. How it is done:
as §1, §2

The next experiment deals with L3.6 pancreatic cells. It is filed as in vivo. The note with it: taxol 3 mg/ml, C6-ceramide 10 mg/ml, i.p. 3×/wk, vs control. How it is done: Treatment was started 4 days after L3.6 cell injection with thrice weekly (3×/wk) intraperitoneal (i.p.) injections of paclitaxel 3.0 mg/ml with or without C6-ceramide (10 mg/ml) for 2 weeks. Mouse survival (FIGS. 2A and 2C), tumor volume (in cm^3; FIG. 2B), mouse body weight (in grams) were recorded (FIG. 2E). The average rate of tumor development was calculated by total tumor volume dividing by total number of days monitored (FIG. 2C).
SCID/Beige/Taconic nude male mice (22-25 g; 6-8 weeks old) were ear tagged and randomized into 4 different groups (Control, Ceramide, gemcitabine, Ceramide+gemcitabine) combining 5 mice each prior to inoculation subcutaneous (s.c.) with 2×10^6 L3.6 cells in a 0.1 ml volume into the internal surface of the right thigh. Treatment was started 4 days after L3.6 cell injection with thrice weekly (3×/wk) intraperitoneal (i.p.) injections of gemcitabine (two doses: 5.0 and 10.0 mg/ml) with or without C6-ceramide (10 mg/ml) for 2 weeks. Mouse survival (FIGS. 3A, 3B, and 3E) and tumor volume (in cm^3; FIGS. 3C and 3D) were recorded (FIG. 3E). Pancreatic cancer cell lines, including L3.6 cells (FIG. 3F), Panc-1 cells (FIG. 3G) and MIA-PaCa2 cells (MIA, FIG. 3H) were cultured in basic DMEM medium and were treated with gemcitabine (Gem, 1 μg/ml). Mitomycin C was always present in the media to prevent cell proliferation from occurring.
SCID/Beige/Taconic male mice were inoculated with 2×10^6 L3.6 pancreatic cells and treated […] 4 days post tumor implant with thrice weekly (3×/wk) intraperitoneal (I.P.) injections of paclitaxel (taxol) 3.0 mg/ml or gemcitabine (Gem) 10 mg/ml after treatment and were autopsied when near death (as per IRB committee). Mouse survival, tumor volume (in cm^3), and body weight (in grams) were recorded. Average rate of tumor development was calculated by dividing total tumor volume by total number of days monitored.
The possible combination effect of C6-ceramide on gemcitabine-induced cytotoxicity (in vitro) and regression (in vivo) of the L3.6 pancreatic cancer cell was also tested according to the methods described in Examples 2 and 3.

In another experiment the test system is AMPK/ACC. The experiment can be described thus: AMPK/ACC signaling in L3.6 cell line. In kind it is cell-based. The note with it: for AMPK activation: taxol alone. The text has this:
The molecular mechanism involved in C6-ceramide induced chemosensitization effects was examined by focusing on taxol.
To further confirm the requirement of AMPK activation in this synergistic effect, siRNA directed against AMPK can be used.

As to `CCCCCCCCCCCCC/C=C/[C@@H](O)[C@H](CO)NC(=O)CCCCC` [C6-ceramide, N-hexanoyl-D-sphingosine], the “ERK activation / signaling” value in the experiment with ERK (L3.6 cells, Western Blot) is “induced moderate survival of AKT/mTORC1 and ERK activation; also recorded: inhibited”. In the experiment on AKT/mTORC1 (C6-ceramide added to taxol), the “effect on taxol induced pro-survival PI3K/AKT/mTOR pathway” value was “dramatically reduces”. Moreover, in the experiment on L3.6 pancreatic cells, the mouse survival result is on record as “minimal effects” and the tumor volume entry is “minimal effects”. The “effect on Taxol induced AMPK/ACC signaling (phosphorylation)” value in the experiment with AMPK/ACC (C6-ceramide added to taxol, L3.6 cell line) is “enhancing; also recorded: dramatically enhances”.

For `CC(=O)O[C@H]1C(=O)[C@@]2(C)[C@H]([C@H](OC(=O)c3ccccc3)[C@]3(O)C[C@H](OC(=O)[C@H](O)[C@@H](NC(=O)c4ccccc4)c4ccccc4)C(C)=C1C3(C)C)[C@]1(OC(C)=O)CO[C@@H]1C[C@@H]2O` [paclitaxel], the “effect on C6-ceramide inhibition of ERK activation” value in the experiment on ERK (added to C6-ceramide) is given as “enhanced”. In addition, the values for the PI3K/AKT/mTOR activation entry in the experiment on AKT/mTORC1 and with AKT/mTORC1 (listed as Taxol) were “no effect” and “strongly induce”, respectively. Moreover, the “effect on C6-ceramide induced AKT de-phosphorylation or inhibition” value with AKT/mTORC1 (added to C6-ceramide) was “dramatically enhanced”. For the same molecule, the mouse survival entry with L3.6 pancreatic cells is “minimal effects”. The tumor volume entry in the experiment with L3.6 pancreatic cells is recorded as “minimal effects”. Besides, the AMPK activation result in the experiment on AMPK/ACC (listed as Taxol) was “strongly induce”; in the experiment on AMPK/ACC (listed as taxol), “moderate AMPK activation”.
